From patent US20060005464A1, “Alkyl ethanolamine and biocide combination for hydrocarbon based fuels” (priority 2004, published 2006)

Experiments:
[1] = tested on: Mycobacterium smegmatis (ATCC # 19420); assay: End-point optical density of Mycobacterium smegmatis with N-alkyl alkanolamines (590 nm, 72 h); format: cell-based; settings: 590 nm, after 72 hours, pH 8.5, tetrazolium dye
[2] = tested on: Pseudomonas aeruginosa (ATCC 10145); assay: Maximum growth slope of Pseudomonas aeruginosa with Proxel DB20 (BIT) plus alkanolamine; format: cell-based; settings: pH 8.5, TSB, 24 hour
Experimental: A culture of Pseudomonas aeruginosa (ATCC 10145) at pH=8.5 in TSB (trypticase soy broth) media was prepared. The biocide Proxel DB20 (20% suspension of benzoisothiazolone (BIT) in water), as sold by Avecia, was added at varying concentrations in combination with 1000 ppm or 2000 ppm of the alkanolamines N-butylaminoethanol (BAE), 2-amino-2-methyl-1-propanol (AMP), dibutylaminoethanol (DBAE) or n-octylaminoethanol (OAE). Optical density measurements were taken every 15 minutes over a 24 hour time period (total of 96 data points). The maximum growth slope was calculated by taking the 10 contiguous data points that result in the highest growth slope (units of OD per time) over a 24 hour period. Those 10 data points were subjected to a least squares linear fit to calculate the maximum growth slope.

[3] = tested on: Pseudomonas Aeruginosa (ATCC27853); assay: Microtiter plate growth of Pseudomonas Aeruginosa with amines and GROTAN; format: cell-based; settings: for growth of Pseudomonas Aeruginosa (Table 1 entry): pH 8.5, 24 hours; for enhancement in the biocidal effect of GROTAN: conclusion from Table 1
[4] = tested on: Pseudomonas aeruginosa (ATCC 10145); assay: Maximum growth slope of Pseudomonas aeruginosa with Bronopol plus alkanolamine; settings: pH 8.5, TSB
[5] = tested on: mixed enteric bacteria (klebsiella pneumoniae, Proteus vulgarus, Citrobacter sp., Escherichia coli); assay: Maximum growth slope of mixed enteric bacteria culture with GROTAN plus alkanolamine; format: cell-based; settings: pH 9.0, TSB with emulsified oil, 24 hour
Experimental: A culture of mixed enteric bacteria (klebsiella pneumoniae, Proteus vulgarus, Citrobacter sp., Escherichia coli) at pH=9.0 in TSB (trypticase soy broth) media mixed with emulsified oil was prepared. A biocide, GROTAN® {78.5% 1,3,5-(2-hydroxyethyl)-s-triazine solution in water} as sold by Troy Chemicals (Florham Park, N.J.) was added at varying concentrations to the culture in combination with 2500 ppm of one of the four alkanolamines, N-butylaminoethanol (BAE), diethanolamine (DEA), diglycolamine (DGA) or 2-amino-2-methyl-1-propanol (AMP). Optical density measurements were taken every 15 minutes over a 24 hour time period (total of 96 data points). The maximum growth slope was calculated by taking the 10 contiguous data points that result in the highest growth slope (units of OD per time) over the 24 hour period. Those 10 data points were subjected to a least squares linear fit to calculate the maximum growth slope.

[6] = tested on: Aureobasidium pullulans (ATCC 12536); assay: End-point optical density of Aureobasidium pullulans with MIT/CMIT plus alkanolamine; format: cell-based; settings: SAB media pH 8.5
Experimental: The impact of N-alkylalkanolamines on the control of the bacterial species Aureobasidium pullulans (ATCC 12536), a bacteria common in water-oil systems, was evaluated by measuring optical absorbance of samples treated with various concentrations of N-alkyl alkanolamines. […] SAB media at pH 8.5 (Tris buffer) was employed. Table 8 summarizes measurement of end-point optical density after 24 hours and 48 hours: […]

[7] = tested on: Mycobacterium marinum (ATCC # 19420); assay: End-point optical density and MIC, Mycobacterium marinum (660 nm, 72 h); format: cell-based; settings: pH 8.5; for end-point optical density: 660 nm, after 72 hours
Experimental: The impact of N-alkylalkanolamines on the control of the bacterial species Mycobacterium smegmatis (ATCC # 19420), a bacteria common in water-oil systems, was evaluated by measuring optical absorbance of samples treated with various alkyl ethanolaminesis DCHA=Dicyclohexylamine, OAE=Octylaminoethanol, ODEA=Octyldiethanolamine. Bacterial concentration was monitored indirectly via optical absorbance at 660 nm. The values reported are end-point optical densities in milliOD units after 48 hours. The media consisted of a standardized solution of clear nutrient broth (Middlebrook 7H10 with OADC supplement), amine, buffer (Tris) and water. The pH was adjusted initially to 8.5 with Tris buffer. The first column in the Table gives the amine concentration in ppm. The final two columns give data for cells that also contained 2 grams per liter of boric acid. In all cases, the values are averages of at least three replicates. The final row of the Table gives an estimate of the concentration range in which the amine in question starts to inhibit the growth of this bacterial species.
The impact of the N-alkylalkanolamines of Example 6 on the control of the bacterial species Mycobacterium marinum (ATCC # 19420), bacteria common in water-oil systems, was evaluated as described above in Example 6. Bacterial concentration in the experimental media was monitored indirectly via optical absorbance at 660 nm. The values reported are end-point optical densities in milliOD units after 72 hours. The media consisted of a standardized solution of clear nutrient broth (Middlebrook 7H10 with OADC supplement), amine, buffer (Tris) and water. The pH was adjusted initially to 8.5 with Tris buffer. The first column in the Table gives the amine concentration in ppm. In all cases, the values are averages of at least three replicates. The final row of the Table gives an estimate of the concentration range in which the amine in question starts to inhibit the growth of this bacterial species.

[8] = amine 1000 ppm plus BIT 150 ppm
[9] = amine 1000 ppm plus BIT 250 ppm
[10] = amine 1000 ppm plus BIT 500 ppm
[11] = amine 2000 ppm plus BIT 150 ppm
[12] = amine 2000 ppm plus BIT 250 ppm
[13] = amine 2000 ppm plus BIT 500 ppm
[14] = amine 2000 ppm plus GROTAN 100 ppm
[15] = amine 2000 ppm plus GROTAN 250 ppm
[16] = amine 2000 ppm plus GROTAN 500 ppm
[17] = amine 2000 ppm plus GROTAN 1000 ppm
[18] = amine 2000 ppm plus GROTAN 2000 ppm
[19] = amine 4000 ppm plus GROTAN 100 ppm
[20] = amine 4000 ppm plus GROTAN 250 ppm
[21] = amine 4000 ppm plus GROTAN 500 ppm
[22] = amine 4000 ppm plus GROTAN 1000 ppm
[23] = amine 4000 ppm plus GROTAN 2000 ppm
[24] = amine 2000 ppm plus Bronopol 5 ppm
[25] = amine 2000 ppm plus Bronopol 15 ppm
[26] = amine 2000 ppm plus Bronopol 25 ppm
[27] = amine 2000 ppm plus Bronopol 35 ppm
[28] = 2500 ppm amine plus GROTAN 650 ppm
[29] = 2500 ppm amine plus GROTAN 1650 ppm
[30] = amine 1000 ppm plus 50 ppm MIT/CMIT, 24 hours
[31] = amine 1000 ppm plus 50 ppm MIT/CMIT, 48 hours
[32] = amine 2000 ppm plus 50 ppm MIT/CMIT, 24 hours
[33] = amine 2000 ppm plus 50 ppm MIT/CMIT, 48 hours

Work on `CC(C)(N)CO` [AMP, 2-methyl-2-amino-1-propanol, reference compound] yielded an end-point optical density ([1]; amine 470 ppm) of 2100 milliOD, an end-point optical density ([1]; amine 940 ppm) of 2200 milliOD and an end-point optical density ([1]; amine 1880 ppm) of 2100 milliOD. The end-point optical density ([1]; amine 3750 ppm) was 2000 milliOD, the end-point optical density ([1]; amine 7500 ppm) was 1700 milliOD and the maximum growth slope [2, 8] was 0.667 OD per time. It also gave a maximum growth slope [2, 9] of 0.508 OD per time, a maximum growth slope [2, 10] of 0.407 OD per time and a maximum growth slope ([2]; amine 1000 ppm, BIT 0 ppm) of 0.478 OD per time. It also gave a maximum growth slope [2, 11] of 0.361 OD per time, a maximum growth slope [2, 12] of 0.320 OD per time and a maximum growth slope [2, 13] of 0.228 OD per time. The maximum growth slope ([2]; amine 2000 ppm, BIT 0 ppm) was 0.29 OD per time, the “growth of Pseudomonas Aeruginosa (Table 1 entry)” value (“growth of Pseudomonas Aeruginosa” below) [3, 14] was 0.72 and the “growth of Pseudomonas Aeruginosa” value [3, 15] was 0.72. For the same compound, the “growth of Pseudomonas Aeruginosa” value [3, 16] was 0.72, the “growth of Pseudomonas Aeruginosa” value [3, 17] was 0.31 and the “growth of Pseudomonas Aeruginosa” value [3, 18] was 0.35. For the same compound, the “growth of Pseudomonas Aeruginosa” value ([3]; amine 2000 ppm, GROTAN 0 ppm) was 0.72, the “growth of Pseudomonas Aeruginosa” value [3, 19] was 0.72 and the “growth of Pseudomonas Aeruginosa” value [3, 20] was 0.69. For the same compound, the “growth of Pseudomonas Aeruginosa” value [3, 21] was 0.39, the “growth of Pseudomonas Aeruginosa” value [3, 22] was 0.30 and the “growth of Pseudomonas Aeruginosa” value [3, 23] was 0.37. For the same compound, the “growth of Pseudomonas Aeruginosa” value ([3]; amine 4000 ppm, GROTAN 0 ppm) was 1.12, the “enhancement in the biocidal effect of GROTAN” value (shortened to “enhancement”) [3] was “not seen” and the maximum growth slope [4, 24] was 0.345. The maximum growth slope [4, 25] was 0.327, the maximum growth slope [4, 26] was 0 and the maximum growth slope [4, 27] was 0. The maximum growth slope [5, 28] was 0.32 OD per time, the maximum growth slope [5, 29] was 0.069 OD per time and the maximum growth slope ([5]; 2500 ppm amine, GROTAN 0 ppm) was 1.065 OD per time. The end-point optical density [6, 30] was 0.3, the end-point optical density [6, 31] was 0.4 and the end-point optical density [6, 32] was 0.3. For the same compound, the end-point optical density [6, 33] was 0.4.
In the case of `CCCCNCCO` [BAE, butylaminoethanol], the “MIC (estimate of the concentration range in which the amine starts to inhibit growth)” value ([7]; 72 hours) is reported as over 4000 ppm, the end-point optical density ([7]; amine 800 ppm) is reported as 0.7 milliOD and the end-point optical density ([7]; amine 1200 ppm) is reported as 0.7 milliOD. The end-point optical density ([7]; amine 2000 ppm) was 0.6 milliOD, the end-point optical density ([7]; amine 4000 ppm) was 0.6 milliOD and the end-point optical density ([1]; amine 470 ppm) was 2200 milliOD. For the same compound, the end-point optical density ([1]; amine 940 ppm) was 2100 milliOD, the end-point optical density ([1]; amine 1880 ppm) was 2000 milliOD and the end-point optical density ([1]; amine 3750 ppm) was 1900 milliOD. It also gave an end-point optical density ([1]; amine 7500 ppm) of 1700 milliOD, a maximum growth slope [2, 8] of 0.317 OD per time and a maximum growth slope [2, 9] of 0.353 OD per time. It also gave a maximum growth slope [2, 10] of 0.281 OD per time, a maximum growth slope ([2]; amine 1000 ppm, BIT 0 ppm) of 0.333 OD per time and a maximum growth slope [2, 11] of 0.134 OD per time. It also gave a maximum growth slope [2, 12] of 0.000 OD per time, a maximum growth slope [2, 13] of 0.000 OD per time and a maximum growth slope ([2]; amine 2000 ppm, BIT 0 ppm) of 0.000 OD per time. The “growth of Pseudomonas Aeruginosa” value [3, 14] was 0.49, the “growth of Pseudomonas Aeruginosa” value [3, 15] was 0.45 and the “growth of Pseudomonas Aeruginosa” value [3, 16] was 0.35. For the same compound, the “growth of Pseudomonas Aeruginosa” value [3, 17] was 0.30, the “growth of Pseudomonas Aeruginosa” value [3, 18] was 0.36 and the “growth of Pseudomonas Aeruginosa” value ([3]; amine 2000 ppm, GROTAN 0 ppm) was 0.37. The “growth of Pseudomonas Aeruginosa” value [3, 19] was 0.35, the “growth of Pseudomonas Aeruginosa” value [3, 20] was 0.32 and the “growth of Pseudomonas Aeruginosa” value [3, 21] was 0.25. For the same compound, the “growth of Pseudomonas Aeruginosa” value [3, 22] was 0.29, the “growth of Pseudomonas Aeruginosa” value [3, 23] was 0.36 and the “growth of Pseudomonas Aeruginosa” value ([3]; amine 4000 ppm, GROTAN 0 ppm) was 0.49. The “enhancement” value [3] was “provide an enhancement in the biocidal effect of GROTAN®”, the maximum growth slope [4, 24] was 0.083 and the maximum growth slope [4, 25] was 0. It also gave a maximum growth slope [4, 26] of 0, a maximum growth slope [4, 27] of 0 and a maximum growth slope [5, 28] of 0.082 OD per time. The maximum growth slope [5, 29] was 0.0515 OD per time, the maximum growth slope ([5]; 2500 ppm amine, GROTAN 0 ppm) was 0.2 OD per time and the end-point optical density [6, 30] was 0.3. For the same compound, the end-point optical density [6, 31] was 0.3, the end-point optical density [6, 32] was 0.2 and the end-point optical density [6, 33] was 0.2.
`OCCNCCO` [DEA, diethanolamine] showed a maximum growth slope [5, 28] of 0.466 OD per time, a maximum growth slope [5, 29] of 0.117 OD per time and a maximum growth slope ([5]; 2500 ppm amine, GROTAN 0 ppm) of 0.723 OD per time.
With `NCCOCCO` [DGA, diglycolamine, reference compound] the “growth of Pseudomonas Aeruginosa” value [3, 14] was 0.71, the “growth of Pseudomonas Aeruginosa” value [3, 15] was 0.70 and the “growth of Pseudomonas Aeruginosa” value [3, 16] was 0.76. The “growth of Pseudomonas Aeruginosa” value [3, 17] was 0.32, the “growth of Pseudomonas Aeruginosa” value [3, 18] was 0.34 and the “growth of Pseudomonas Aeruginosa” value ([3]; amine 2000 ppm, GROTAN 0 ppm) was 0.76. For the same compound, the “growth of Pseudomonas Aeruginosa” value [3, 19] was 0.70, the “growth of Pseudomonas Aeruginosa” value [3, 20] was 0.69 and the “growth of Pseudomonas Aeruginosa” value [3, 21] was 0.36. For the same compound, the “growth of Pseudomonas Aeruginosa” value [3, 22] was 0.29, the “growth of Pseudomonas Aeruginosa” value [3, 23] was 0.36 and the “growth of Pseudomonas Aeruginosa” value ([3]; amine 4000 ppm, GROTAN 0 ppm) was 0.68. For the same compound, the “enhancement” value [3] was “not seen”, the maximum growth slope [5, 28] was 0.1955 OD per time and the maximum growth slope [5, 29] was 0.0725 OD per time. For the same compound, the maximum growth slope ([5]; 2500 ppm amine, GROTAN 0 ppm) was 0.796 OD per time.
